The values that follow come from the NIST ThermoML archive (doi:10.1016/j.fluid.2015.07.038).

The conditions of the data set: Crystal; DTA.

SMILES strings stand for the structures. Numbers after ± are expanded uncertainties.

Turning to `COc1ccc2[nH]c(SCc3ncc(C)c(OC)c3C)nc2c1` [Omeprazole sulfide], the Normal melting temperature was found to be 119.00 ± 0.5 °C.
